Measured values taken from ChEMBL document CHEMBL1201862, “PubChem BioAssay data set” (2004).
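Five concentrations, 48 hours, 96-well plates. GI50 is the concentration that inhibits growth by half.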 The source made the active and inactive calls. Cut-off read from the data, not from the text of the source: active = GI50 up to about 1.1 µM and inactive = higher.

Tests used:
Assay in all cases: NCI tumour cell line growth inhibition, 48 h
[1] = test system: 786-0
[2] = test system: BT-549
[3] = test system: COLO 205
[4] = test system: DU-145
[5] = test system: HCC 2998
[6] = test system: HOP-62
[7] = test system: HT-29
[8] = test system: Hs-578T
[9] = test system: KM-20L2
[10] = test system: M14
[11] = test system: MCF7
[12] = test system: Malme-3M
[13] = test system: OVCAR-4
[14] = test system: OVCAR-5
[15] = test system: RPMI-8226
[16] = test system: RXF 393
[17] = test system: SK-OV-3
[18] = test system: SNB-19
[19] = test system: U-251
[20] = test system: UO-31

Measured: GI50

Nc1ccn(C2CCC(CO)O2)c(=O)n1 (stereo not given)
inactive: [1] > 1000 µM | [2] > 1000 µM | [3] > 100 µM | [4] 719 µM | [5] > 100 µM | [6] > 100 µM | [7] > 100 µM | [8] > 1000 µM | [9] > 100 µM | [10] > 1000 µM | [11] 99.8 µM | [12] > 100 µM | [13] > 83 µM | [14] > 100 µM | [15] > 100 µM | [16] > 100 µM | [17] > 100 µM | [18] > 100 µM | [19] > 100 µM | [20] 836 µM

Nc1nc2c(ncn2C2CCC(CO)O2)c(=O)n1C(=O)c1ccccc1 (stereo not given)
inactive: [1] > 100 µM | [2] > 100 µM | [3] > 100 µM | [4] > 100 µM | [5] > 100 µM | [6] > 100 µM | [7] > 100 µM | [8] > 100 µM | [9] > 100 µM | [10] > 100 µM | [11] > 100 µM | [12] > 100 µM | [13] > 100 µM | [14] > 100 µM | [15] > 100 µM | [16] > 100 µM | [17] > 100 µM | [18] > 100 µM | [19] > 100 µM | [20] > 100 µM

CC1=C(/C=C/C(C)=C/C=C/C(C)=C/C(=O)O)C(C)(C)CCC1 [TRETINOIN]
inactive: [1] 49.9 µM | [2] 37.3 µM | [3] 49.3 µM | [4] 55.3 µM | [5] 51.6 µM | [6] 49.9 µM | [7] 47.6 µM | [8] > 43 µM | [9] > 100 µM | [10] 49.4 µM | [11] 29 µM | [12] 46.3 µM | [13] > 70 µM | [14] > 68.5 µM | [15] 1.34 µM | [16] > 68.1 µM | [17] > 71.8 µM | [18] 47.5 µM | [19] 51.3 µM | [20] > 64.3 µM
